From the supplement of paper PMC10307832

Key:
Experiment in all cases: relative viability (nuclei count vs DMSO), 5 days (fraction); higher = more cells survive
[1] = compound: CC(C)CCN1c2nc(Nc3cc(F)c(O)c(F)c3)ncc2N(C)C(=O)C1C [BI-D1870] + CC(=O)c1c(C)c2cnc(Nc3ccc(N4CCNCC4)cn3)nc2n(C2CCCC2)c1=O [Palbociclib] (partner 0.5 µM)
Summary of the method: (§1)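 The day after seeding in 1536-well plates, lung cancer cell lines were treated by pin tool with a single drug, or with a fixed anchor-drug dose together with five library-drug doses (not always all listed) in √10 steps. After 5 days, a combined fix-and-stain solution (final 0.05% Triton X-100, 1% formaldehyde, 1 ug/ml Hoechst) was added. Nuclei counted on 4× images gave relative viability as treated counts over vehicle counts, reported as the median of duplicate plates.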

[2] = compound: O=c1ncccn1[C@@H]1O[C@H](CO)[C@@H](O)[C@H]1O [Zebularine] + CC1(C)CCC(c2ccc(Cl)cc2)=C(CN2CCN(c3ccc(C(=O)NS(=O)(=O)c4ccc(N[C@H](CCN5CCOCC5)CSc5ccccc5)c(S(=O)(=O)C(F)(F)F)c4)cc3)CC2)C1 [Navitoclax] (partner 0.5 µM)
Summary of the method: as §1

[3] = compound: O=c1ncccn1[C@@H]1O[C@H](CO)[C@@H](O)[C@H]1O [Zebularine] + CS(=O)(=O)N1CCN(Cc2cc3nc(-c4cccc5[nH]ncc45)nc(N4CCOCC4)c3s2)CC1 [Pictilisib] (partner 1 µM)
Summary of the method: as §1

[4] = compound: O=c1ncccn1[C@@H]1O[C@H](CO)[C@@H](O)[C@H]1O [Zebularine] + Cc1nc(Nc2ncc(C(=O)Nc3c(C)cccc3Cl)s2)cc(N2CCN(CCO)CC2)n1 [Dasatinib] (partner 0.075 µM)
Summary of the method: as §1

Q: What does the source list for UMC-11?
A: relative viability ([1]; first compound 0.04 µM): 0.331; relative viability ([1]; first compound 0.1265 µM): 0.347; relative viability ([1]; first compound 0.4 µM): 0.327; relative viability ([1]; first compound 1.265 µM): 0.309; relative viability ([1]; first compound 4 µM): 0.272; relative viability ([2]; first compound 1 µM): 0.316; relative viability ([2]; first compound 3.162 µM): 0.328; relative viability ([2]; first compound 10 µM): 0.265; relative viability ([2]; first compound 31.62 µM): 0.344; relative viability ([2]; first compound 100 µM): 0.238; relative viability ([3]; first compound 1 µM): 0.89; relative viability ([3]; first compound 3.162 µM): 0.451; relative viability ([3]; first compound 10 µM): 0.467; relative viability ([3]; first compound 31.62 µM): 0.653; relative viability ([3]; first compound 100 µM): 0.35; relative viability ([4]; first compound 1 µM): 0.514; relative viability ([4]; first compound 3.162 µM): 0.471; relative viability ([4]; first compound 10 µM): 0.205; relative viability ([4]; first compound 31.62 µM): 0.436; relative viability ([4]; first compound 100 µM): 0.324
